As a reminder, the IC50 is the midpoint of a concentration-inhibition curve. The term inhibition denotes the drop in the measured response relative to a control, in per cent. Read a low inhibition as a response near the control.

The subject of assay [1] is Trypanosoma cruzi. Description: Inhibitory activity against Trypanosoma cruzi trypomastigotes. Format: functional, organism-based.
For another assay, the target named is Trypanothione reductase (Trypanosoma cruzi, UniProt P28593). Description: Inhibitory activity against trypanothione reductase in Trypanosoma cruzi trypomastigotes; NA is not active.
Chain of Trypanothione reductase (P28593 whole entry): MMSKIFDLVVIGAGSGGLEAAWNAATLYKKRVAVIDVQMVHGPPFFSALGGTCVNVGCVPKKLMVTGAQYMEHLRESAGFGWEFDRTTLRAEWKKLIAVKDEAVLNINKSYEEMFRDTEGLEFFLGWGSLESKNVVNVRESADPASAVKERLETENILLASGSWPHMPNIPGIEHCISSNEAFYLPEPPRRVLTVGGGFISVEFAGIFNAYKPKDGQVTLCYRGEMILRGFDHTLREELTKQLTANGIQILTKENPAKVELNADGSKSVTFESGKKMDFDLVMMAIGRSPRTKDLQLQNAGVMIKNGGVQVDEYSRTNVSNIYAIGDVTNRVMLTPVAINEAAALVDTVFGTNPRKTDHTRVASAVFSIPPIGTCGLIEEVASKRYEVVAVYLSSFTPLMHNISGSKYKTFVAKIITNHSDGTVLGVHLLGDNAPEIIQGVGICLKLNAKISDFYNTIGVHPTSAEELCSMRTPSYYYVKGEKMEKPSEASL
Assay [2] deals with Trypanosoma cruzi. Description: Inhibitory activity against Trypanosoma cruzi trypomastigotes at concentration 12.5 uM. The class given is functional.

Take `NCCCCC(N)C(=O)NCC1CCC(CNCCCN2CCN(CCCNCC3CCC(CNC(=O)C(N)CCCCN)CC3)CC2)CC1` (centres undefined): the half-maximal inhibitory concentration (IC50) in the assay with Trypanosoma cruzi [1] is 5 µM; against Trypanothione reductase, “Not Active”.

Consider `NCCCCC(N)C(=O)NCC1CCC(CNCCCN2CCN(CCCNCC3CCCCC3)CC2)CC1` (centres undefined), for which the figures for the half-maximal inhibitory concentration (IC50) with Trypanosoma cruzi [1] and against Trypanothione reductase were 5 µM and “Not Active”, respectively.

Consider `NCCCN1CCN(CCCNCC2CCCCC2)CC1`, for which the half-maximal inhibitory concentration (IC50) in the assay on Trypanosoma cruzi [1] was 5 µM; against Trypanothione reductase, “Not Active”.

`NCCCN1CCN(CCCN2C(=O)c3ccccc3C2=O)CC1`: the values for the IC50 in the assay with Trypanosoma cruzi [1] and on Trypanothione reductase were 5 µM and “Not Active”, respectively.

In the case of `C1CCC(CNCCCN2CCN(CCCNCC3CCCCC3)CC2)CC1`, the values for the IC50 in the assay with Trypanosoma cruzi [1] and on Trypanothione reductase were 5 µM and “Not Active”, respectively. The compound also had an inhibition at 12.5 µM in the assay with Trypanosoma cruzi [2] of 90%.

Take `CC(C)(C)OC(=O)NCCCCC(NC(=O)OC(C)(C)C)C(=O)NCC1CCC(CNCCCN2CCN(CCCNCC3CCC(CNC(=O)C(CCCCNC(=O)OC(C)(C)C)NC(=O)OC(C)(C)C)CC3)CC2)CC1` (centres undefined): the results for the IC50 with Trypanosoma cruzi [1] and on Trypanothione reductase were 5 µM and “Not Active”, respectively.

Consider `O=C1c2ccccc2C(=O)N1CCCN1CCN(CCCNCC2CCCCC2)CC1`, for which the concentration for half-maximal inhibition (IC50) was 5 µM with Trypanosoma cruzi [1] and “Not Active” on Trypanothione reductase.

In the case of `NCCCN1CCN(CCCN)CC1`, the IC50 in the assay on Trypanosoma cruzi [1] is 5 µM; at Trypanothione reductase it was “Not Active”.

`CC(C)(C)OC(=O)NCCCCC(NC(=O)OC(C)(C)C)C(=O)NCC1CCC(CNCCCN2CCN(CCCNCC3CCCCC3)CC2)CC1` (centres undefined): the figures for the IC50 in the assay with Trypanosoma cruzi [1] and on Trypanothione reductase were 5 µM and “Not Active”, respectively.

(Values after ChEMBL document CHEMBL1131734, “Synthesis of polyamine derivatives for the preparation of affinity chromatography columns for the search of new Trypanosoma cruzi targets” (Bioorg Med Chem Lett, 1999).)
